Reference: patent US9403813B2, “Azetidine amide derivatives as orexin receptor antagonists” (ACTELION PHARMACEUTICALS LTD, priority 2013, dated 2016)

Columns and labels:
human orexin-1 receptor = human orexin-1 receptor (Homo sapiens (Human), UniProt O43613); assay: Intracellular calcium measurements (FLIPR), antagonism of orexin-A response; assay type: cell-based; settings: CHO cells expressing human orexin-1 receptor, 3 nM orexin-A, geometric mean if determined several times, read-out: IC50 OX1
How it was run: (§1)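 CHO cells expressing human OX1 or OX2 receptor, loaded with fluo-4 AM plus probenecid, preincubated with antagonist 120 min before 3 nM orexin-A challenge. FLIPR calcium peak heights compared with agonist-plus-vehicle response. IC50 possibly normalized to on-plate reference; geometric mean of repeat determinations.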

human orexin-2 receptor = human orexin-2 receptor (Homo sapiens (Human), UniProt O43614); assay: as above; assay type: cell-based; settings: CHO cells expressing human orexin-2 receptor, 3 nM orexin-A, geometric mean if determined several times, read-out: IC50 OX2
How it was run: as §1

Sequence of human orexin-1 receptor (O43613 whole entry): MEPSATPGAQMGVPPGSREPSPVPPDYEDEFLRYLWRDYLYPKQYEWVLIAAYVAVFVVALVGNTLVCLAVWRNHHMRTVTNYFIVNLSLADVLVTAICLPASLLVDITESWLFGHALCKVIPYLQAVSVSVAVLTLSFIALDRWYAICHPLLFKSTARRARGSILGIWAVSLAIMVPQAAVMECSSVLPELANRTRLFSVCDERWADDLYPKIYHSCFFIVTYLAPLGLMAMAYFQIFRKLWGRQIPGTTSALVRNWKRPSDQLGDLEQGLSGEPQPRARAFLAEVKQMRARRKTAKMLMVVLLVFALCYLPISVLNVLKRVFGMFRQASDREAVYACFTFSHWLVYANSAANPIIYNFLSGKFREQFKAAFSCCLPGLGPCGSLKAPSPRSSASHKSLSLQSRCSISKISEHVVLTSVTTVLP
Sequence of human orexin-2 receptor (O43614 whole entry): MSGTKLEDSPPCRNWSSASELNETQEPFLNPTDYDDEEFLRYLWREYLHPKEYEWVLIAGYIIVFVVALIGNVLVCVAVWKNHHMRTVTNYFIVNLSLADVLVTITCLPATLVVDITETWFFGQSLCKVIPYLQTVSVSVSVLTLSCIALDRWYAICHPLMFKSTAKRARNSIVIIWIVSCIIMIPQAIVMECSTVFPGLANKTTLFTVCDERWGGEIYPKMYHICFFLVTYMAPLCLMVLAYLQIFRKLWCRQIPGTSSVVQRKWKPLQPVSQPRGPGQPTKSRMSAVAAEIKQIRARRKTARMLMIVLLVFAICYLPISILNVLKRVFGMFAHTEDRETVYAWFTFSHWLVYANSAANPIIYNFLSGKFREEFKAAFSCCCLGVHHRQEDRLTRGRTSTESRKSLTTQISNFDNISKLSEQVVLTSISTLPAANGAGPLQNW

Compound | IC50 (human orexin-1 receptor) | IC50 (human orexin-2 receptor)
CCOc1ncccc1-c1nc([C@@H]2CCN2C(=O)c2cc(Cl)c(C)cc2-n2nccn2)no1 [Example 99, (5-Chloro-4-methyl-2-[1,2,3]triazol-2-yl-phenyl)-{(S)-2-[5-(2-ethoxy-pyridin-3-yl)-[1,2,4]oxadiazol-3-yl]-azetidin-1-yl}-methanone] | 20 nM | 1 nM
Cc1c(Cl)cccc1-c1nc([C@@H]2CCN2C(=O)c2ccccc2-n2nccn2)no1 [Example 100, {(S)-2-[5-(3-Chloro-2-methyl-phenyl)-[1,2,4]oxadiazol-3-yl]-azetidin-1-yl}-(2-[1,2,3]triazol-2-yl-phenyl)-methanone] | 820 nM | 34 nM
Cc1ccc(-n2nccn2)c(C(=O)N2CC[C@H]2c2noc(-c3cccc(Cl)c3C)n2)c1 [Example 101, {(S)-2-[5-(3-Chloro-2-methyl-phenyl)-[1,2,4]oxadiazol-3-yl]-azetidin-1-yl}-(5-methyl-2-[1,2,3]triazol-2-yl-phenyl)-methanone] | 88 nM | 8 nM
Cc1cc(C(=O)N2CC[C@H]2c2noc(-c3cccc(Cl)c3C)n2)c(-n2nccn2)cc1C [Example 102, {(S)-2-[5-(3-Chloro-2-methyl-phenyl)-[1,2,4]oxadiazol-3-yl]-azetidin-1-yl}-(4,5-dimethyl-2-[1,2,3]triazol-2-yl-phenyl)-methanone] | 41 nM | 2 nM
COc1cc(C(=O)N2CC[C@H]2c2noc(-c3cccc(Cl)c3C)n2)c(-n2nccn2)cc1C [Example 103, {(S)-2-[5-(3-Chloro-2-methyl-phenyl)-[1,2,4]oxadiazol-3-yl]-azetidin-1-yl}-(5-methoxy-4-methyl-2-[1,2,3]triazol-2-yl-phenyl)-methanone] | 59 nM | 2 nM
COc1cc(C(=O)N2CC[C@H]2c2noc(-c3cccc(Cl)c3C)n2)c(-n2nccn2)cc1Cl [Example 104, (4-Chloro-5-methoxy-2-[1,2,3]triazol-2-yl-phenyl)-{(S)-2-[5-(3-chloro-2-methyl-phenyl)-[1,2,4]oxadiazol-3-yl]-azetidin-1-yl}-methanone] | 181 nM | 2 nM
Cc1cc(-n2nccn2)c(C(=O)N2CC[C@H]2c2noc(-c3cccc(Cl)c3C)n2)cc1Cl [Example 105, {(S)-2-[5-(3-Chloro-2-methyl-phenyl)-[1,2,4]oxadiazol-3-yl]-azetidin-1-yl}-(5-chloro-4-methyl-2-[1,2,3]triazol-2-yl-phenyl)-methanone] | 122 nM | 5 nM
Cc1ccc(C(=O)N2CC[C@H]2c2noc(-c3cccc(Cl)c3C)n2)c(-n2nccn2)c1 [Example 106, {(S)-2-[5-(3-Chloro-2-methyl-phenyl)-[1,2,4]oxadiazol-3-yl]-azetidin-1-yl}-(4-methyl-2-[1,2,3]triazol-2-yl-phenyl)-methanone] | 330 nM | 9 nM
Cc1c(Cl)cccc1-c1nc([C@@H]2CCN2C(=O)c2ccc(Cl)cc2-n2nccn2)no1 [Example 107, {(S)-2-[5-(3-Chloro-2-methyl-phenyl)-[1,2,4]oxadiazol-3-yl]-azetidin-1-yl}-(4-chloro-2-[1,2,3]triazol-2-yl-phenyl)-methanone] | 317 nM | 13 nM
Cc1c(Cl)cccc1-c1nc([C@@H]2CCN2C(=O)c2ccc(C(F)(F)F)cc2-n2nccn2)no1 [Example 108, {(S)-2-[5-(3-Chloro-2-methyl-phenyl)-[1,2,4]oxadiazol-3-yl]-azetidin-1-yl}-(2-[1,2,3]triazol-2-yl-4-trifluoromethyl-phenyl)-methanone] | 759 nM | 28 nM
COc1c(Cl)cccc1-c1nc([C@@H]2CCN2C(=O)c2cc(C)ccc2-n2nccn2)no1 [Example 109, {(S)-2-[5-(3-Chloro-2-methoxy-phenyl)-[1,2,4]oxadiazol-3-yl]-azetidin-1-yl}-(5-methyl-2-[1,2,3]triazol-2-yl-phenyl)-methanone] | 132 nM | 3 nM
COc1c(Cl)cccc1-c1nc([C@@H]2CCN2C(=O)c2cc(C)c(C)cc2-n2nccn2)no1 [Example 110, {(S)-2-[5-(3-Chloro-2-methoxy-phenyl)-[1,2,4]oxadiazol-3-yl]-azetidin-1-yl}-(4,5-dimethyl-2-[1,2,3]triazol-2-yl-phenyl)-methanone] | 46 nM | 1 nM
COc1cc(C(=O)N2CC[C@H]2c2noc(-c3cccc(Cl)c3OC)n2)c(-n2nccn2)cc1C [Example 111, {(S)-2-[5-(3-Chloro-2-methoxy-phenyl)-[1,2,4]oxadiazol-3-yl]-azetidin-1-yl}-(5-methoxy-4-methyl-2-[1,2,3]triazol-2-yl-phenyl)-methanone] | 82 nM | 0.7 nM
COc1cc(C(=O)N2CC[C@H]2c2noc(-c3cccc(Cl)c3OC)n2)c(-n2nccn2)cc1Cl [Example 112, {(S)-2-[5-(3-Chloro-2-methoxy-phenyl)-[1,2,4]oxadiazol-3-yl]-azetidin-1-yl}-(4-chloro-5-methoxy-2-[1,2,3]triazol-2-yl-phenyl)-methanone] | 70 nM | 1 nM
COc1c(Cl)cccc1-c1nc([C@@H]2CCN2C(=O)c2cc(Cl)c(C)cc2-n2nccn2)no1 [Example 113, {(S)-2-[5-(3-Chloro-2-methoxy-phenyl)-[1,2,4]oxadiazol-3-yl]-azetidin-1-yl}-(5-chloro-4-methyl-2-[1,2,3]triazol-2-yl-phenyl)-methanone] | 51 nM | 1 nM
Cc1ccc(-c2ccccc2)c(C(=O)N2CC[C@H]2c2noc(-c3cccc(Cl)c3C)n2)c1 [Example 114, {(S)-2-[5-(3-Chloro-2-methyl-phenyl)-[1,2,4]oxadiazol-3-yl]-azetidin-1-yl}-(4-methyl-biphenyl-2-yl)-methanone] | 26 nM | 2 nM
Cc1c(Cl)cccc1-c1nc([C@@H]2CCN2C(=O)c2cc(F)ccc2-c2ncccn2)no1 [Example 115, {(S)-2-[5-(3-Chloro-2-methyl-phenyl)-[1,2,4]oxadiazol-3-yl]-azetidin-1-yl}-(5-fluoro-2-pyrimidin-2-yl-phenyl)-methanone] | 984 nM | 122 nM
COc1cc(C(=O)N2CC[C@H]2c2noc(-c3cccc(Cl)c3C)n2)c(-c2ncccn2)cc1C [Example 116, {(S)-2-[5-(3-Chloro-2-methyl-phenyl)-[1,2,4]oxadiazol-3-yl]-azetidin-1-yl}-(5-methoxy-4-methyl-2-pyrimidin-2-yl-phenyl)-methanone] | 561 nM | 5 nM
Cc1ccc(-c2ncccn2)c(C(=O)N2CC[C@H]2c2noc(-c3cccc(Cl)c3C)n2)c1 [Example 117, {(S)-2-[5-(3-Chloro-2-methyl-phenyl)-[1,2,4]oxadiazol-3-yl]-azetidin-1-yl}-(5-methyl-2-pyrimidin-2-yl-phenyl)-methanone] | 606 nM | 32 nM
COc1c(Cl)cccc1-c1nc([C@@H]2CCN2C(=O)c2ccc(C)cc2-n2nccn2)no1 [Example 118, {(S)-2-[5-(3-Chloro-2-methoxy-phenyl)-[1,2,4]oxadiazol-3-yl]-azetidin-1-yl}-(4-methyl-2-[1,2,3]triazol-2-yl-phenyl)-methanone] | 81 nM | 4 nM
COc1c(Cl)cccc1-c1nc([C@@H]2CCN2C(=O)c2ccc(Cl)cc2-n2nccn2)no1 [Example 119, {(S)-2-[5-(3-Chloro-2-methoxy-phenyl)-[1,2,4]oxadiazol-3-yl]-azetidin-1-yl}-(4-chloro-2-[1,2,3]triazol-2-yl-phenyl)-methanone] | 38 nM | 4 nM
Cc1ccc(-n2nccn2)c(C(=O)N2CC[C@H]2c2nnc(-c3ccccc3)[nH]2)c1 [Example 120, (5-Methyl-2-[1,2,3]triazol-2-yl-phenyl)-[(S)-2-(5-phenyl-4H-[1,2,4]triazol-3-yl)-azetidin-1-yl]-methanone] | 13400 nM | 450 nM
Cc1ccc(C(=O)N2CC[C@H]2c2nnc(-c3ccccc3)[nH]2)c(-n2nccn2)c1 [Example 121, (4-Methyl-2-[1,2,3]triazol-2-yl-phenyl)-[(S)-2-(5-phenyl-4H-[1,2,4]triazol-3-yl)-azetidin-1-yl]-methanone] | 9070 nM | 322 nM
CCOc1ncccc1-c1nnc([C@@H]2CCN2C(=O)c2cc(C)ccc2-n2nccn2)[nH]1 [Example 122, {(S)-2-[5-(2-Ethoxy-pyridin-3-yl)-4H-[1,2,4]triazol-3-yl]-azetidin-1-yl}-(5-methyl-2-[1,2,3]triazol-2-yl-phenyl)-methanone] | 2300 nM | 92 nM
CCOc1ncccc1-c1nnc([C@@H]2CCN2C(=O)c2ccc(C)cc2-n2nccn2)[nH]1 [Example 123, {(S)-2-[5-(2-Ethoxy-pyridin-3-yl)-4H-[1,2,4]triazol-3-yl]-azetidin-1-yl}-(4-methyl-2-[1,2,3]triazol-2-yl-phenyl)-methanone] | 2040 nM | 316 nM
Cc1ccc(-n2nccn2)c(C(=O)N2CC[C@H]2c2nnc(-c3cccc(Cl)c3C)[nH]2)c1 [Example 124, {(S)-2-[5-(3-Chloro-2-methyl-phenyl)-4H-[1,2,4]triazol-3-yl]-azetidin-1-yl}-(5-methyl-2-[1,2,3]triazol-2-yl-phenyl)-methanone] | 5880 nM | 238 nM
Cc1ccc(-n2nccn2)c(C(=O)N2CC[C@H]2c2nnc(-c3ccccc3OC(F)(F)F)[nH]2)c1 [Example 125, (5-Methyl-2-[1,2,3]triazol-2-yl-phenyl)-{(S)-2-[5-(2-trifluoromethoxy-phenyl)-4H-[1,2,4]triazol-3-yl]-azetidin-1-yl}-methanone] | 2430 nM | 56 nM
COc1c(Cl)cccc1-c1nnc([C@@H]2CCN2C(=O)c2cc(C)ccc2-n2nccn2)[nH]1 [Example 126, {(S)-2-[5-(3-Chloro-2-methoxy-phenyl)-4H-[1,2,4]triazol-3-yl]-azetidin-1-yl}-(5-methyl-2-[1,2,3]triazol-2-yl-phenyl)-methanone] | 7230 nM | 170 nM
